In the NIST ThermoML archive (doi:10.1021/acs.jced.6b00168):

Experiment: mn = molality of the nth substance listed, in mol/kg
Settings: 100 kPa, Liquid; for speed of sound: Frequency=3 MHz, Sing-around technique in a fixed-path interferometer; for mass density: Vibrating tube method

CC(C)C[C@H](NC(=O)CN)C(=O)O [glycyl-L-leucine] + O
Settings | mass density, 288.15 K [kg/m3] | mass density, 298.15 K [kg/m3] | mass density, 308.15 K [kg/m3] | mass density, 318.15 K [kg/m3] | speed of sound, 288.15 K [m/s] | speed of sound, 298.15 K [m/s] | speed of sound, 308.15 K [m/s] | speed of sound, 318.15 K [m/s]
m1 = 0.01036 | 999.623 | 997.544 | 994.554 | 990.713 | 1468.4 | 1497.4 | 1521 | 1537.6
m1 = 0.02041 | 1000.14 | 998.07 | 995.045 | 991.171 | 1470.1 | 1499 | 1522.6 | 1539.1
m1 = 0.04005 | 1001.13 | 999.05 | 995.995 | 992.11 | 1473.3 | 1502 | 1525.5 | 1542
m1 = 0.06009 | 1002.13 | 999.995 | 996.94 | 993.02 | 1476.6 | 1505.2 | 1528.5 | 1544.9
m1 = 0.08023 | 1003.08 | 1000.95 | 997.866 | 993.927 | 1479.9 | 1508.3 | 1531.5 | 1547.9
m1 = 0.09965 | 1004.02 | 1001.9 | 998.802 | 994.85 | 1483.1 | 1511.3 | 1534.4 | 1550.7
m1 = 0.1502 | 1006.4 | 1004.28 | 1001.19 | 997.236 | 1491.4 | 1519.2 | 1542 | 1558.2
m1 = 0.2014 | 1008.79 | 1006.66 | 1003.57 | 999.61 | 1499.8 | 1527.1 | 1549.7 | 1565.7

CC(C)C[C@H](N)C(=O)O [L-leucine] + O
Settings | mass density, 288.15 K [kg/m3] | mass density, 298.15 K [kg/m3] | mass density, 308.15 K [kg/m3] | mass density, 318.15 K [kg/m3] | speed of sound, 288.15 K [m/s] | speed of sound, 298.15 K [m/s] | speed of sound, 308.15 K [m/s] | speed of sound, 318.15 K [m/s]
m1 = 0.00991 | 999.363 | 997.29 | 994.279 | 990.433 | 1468 | 1497 | 1520.5 | 1537
m1 = 0.02042 | 999.615 | 997.535 | 994.535 | 990.663 | 1469.3 | 1498.2 | 1521.5 | 1538
m1 = 0.04026 | 1000.09 | 998.005 | 994.994 | 991.098 | 1471.8 | 1500.4 | 1523.5 | 1539.8
m1 = 0.06014 | 1000.6 | 998.476 | 995.441 | 991.533 | 1474.2 | 1502.6 | 1525.5 | 1541.7
m1 = 0.0802 | 1001.07 | 998.929 | 995.893 | 991.972 | 1476.7 | 1504.9 | 1527.5 | 1543.5
m1 = 0.1002 | 1001.57 | 999.402 | 996.345 | 992.41 | 1479.2 | 1507.1 | 1529.5 | 1545.3
m1 = 0.1246 | 1002.13 | 999.979 | 996.896 | 992.945 | 1482.3 | 1509.8 | 1532 | 1547.6
m1 = 0.1502 | 1002.71 | 1000.56 | 997.446 | 993.506 | 1485.5 | 1512.7 | 1534.6 | 1550
